# Data published in US11719711B2, “Compositions and methods for detecting and/or treating inflammation” (THE GENERAL HOSPITAL CORPORATION, priority 2013, dated 2023).
# Tests used:
# P2Y14 [1] = target: T1, P2Y14 (Canis lupus familiaris, UniProt A0A8I3S656); experiment: [3H]UDP-glucose dose-displacement binding to MDCK-C11 membranes; parameters: endogenous in cells; host or cells: MDCK-C11 cells (Madin-Darby Canine Kidney subclone C11), not transfected; species or system Canine; conditions: MDCK-C11 membranes 15 μg, [3H]UDP-glucose 3 nM, 3 hours 22° C., increasing concentrations (ATP up to 10 μM)
# T1 sequence (A0A8I3S656 1-340): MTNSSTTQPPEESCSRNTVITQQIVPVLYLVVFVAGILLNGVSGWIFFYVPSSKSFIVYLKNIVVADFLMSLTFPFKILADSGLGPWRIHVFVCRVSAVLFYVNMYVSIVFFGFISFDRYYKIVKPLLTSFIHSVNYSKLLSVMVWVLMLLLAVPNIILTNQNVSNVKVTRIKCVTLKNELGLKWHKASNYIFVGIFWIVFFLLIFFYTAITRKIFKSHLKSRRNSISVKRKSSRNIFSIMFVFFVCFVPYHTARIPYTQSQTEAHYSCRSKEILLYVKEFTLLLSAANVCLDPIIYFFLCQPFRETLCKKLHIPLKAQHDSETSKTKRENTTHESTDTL
# Description: Incubation was terminated by the addition of ice-cold 50 mM Tris/HCl pH 7.4, 1 mM EDTA, 5 mM MgCl2 and was followed immediately by filtration under vacuum through Gelman A/E glass filters (Pall life science, An Arbor, Mich.) pre-soaked in binding buffer. The filters were rinsed twice before the addition of 5 ml of scintillation fluid (OpticFluor, Groninge, The Netherlands). Receptor-bound radioactivity was measured using liquid scintillation analyzer Tricarb 2200 CA from Parckard. All assays were performed in triplicate. […] Incubations were stopped by the addition of ice-cold buffer and receptor-bound radioactivity was determined as described above. The equilibrium dissociation constant (Kd) and the capacity of binding in dose-displacement studies were calculated using a scatchard plot and are expressed as the mean±SD. Statistical analysis were performed using the unpaired Student t-test.
# P2Y14 [2] = target: T2, P2Y14 (Mus musculus, UniProt Q9ESG6); conditions: EGFP(+) cell membranes, saturating concentration 10^−5 M unlabeled ligand
# T2 sequence (Q9ESG6 1-338): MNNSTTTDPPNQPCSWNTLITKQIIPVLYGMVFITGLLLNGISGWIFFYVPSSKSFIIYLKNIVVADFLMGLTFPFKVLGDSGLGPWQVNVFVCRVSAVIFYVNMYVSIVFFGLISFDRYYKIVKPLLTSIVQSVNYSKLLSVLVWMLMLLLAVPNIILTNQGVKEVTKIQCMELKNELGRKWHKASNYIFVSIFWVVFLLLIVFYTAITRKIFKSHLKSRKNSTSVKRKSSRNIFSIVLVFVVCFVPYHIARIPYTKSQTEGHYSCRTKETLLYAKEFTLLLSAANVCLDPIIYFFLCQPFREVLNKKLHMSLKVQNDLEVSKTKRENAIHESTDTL
# Description: Mice were anesthetized using pentobarbital sodium (50 mg/kg body, ip, Nembutal, Abbott Laboratories, Abbott Park, Ill.). The blood was flushed out of the organs by perfusing the animals with a phosphate-buffered saline (PBS) through the cardiac left ventricle at a constant flow rate of 17 ml/min. Kidneys were excised and sliced, and some kidneys were microdissected to separate the cortex from the medulla. Tissues were then minced immediately with scissors in RPMI 1640 medium (Invitrogen, Grand Island, N.Y.) containing 1.0 mg/ml collagenase type I (Invitrogen), 1.0 mg/ml collagenase type II (Sigma Aldrich) and 2 mg/ml hyaluronidase (Sigma Aldrich), and digested for 45 min at 37° C. A 40-μm-nylon mesh was used to remove undigested material following tissue digestion. Cells were then washed once with RPMI 1640 medium and once with a calcium-free PBS. EGFP-positive (EGFP(+)) and negative (EGFP(−)) cells were isolated immediately by FACS, based on their green fluorescence intensity, as described previously (36). […]
# Confluent MDCK-C11 cells were scrapped in ice-cold PBS, pelleted by centrifugation (500 g, 10 min) and then resuspended in 1 ml ice-cold Tris-acetate 0.2 M buffer (pH 7.5) containing protease inhibitors (Complete Mini, Roche, Indianapolis, Ind.) using a 25G needle. […] Protein concentration was determined using a nanodrop 2000 (Thermo scientific). […]
# [3] = tested on: pro-inflammatory chemokine mRNA expression in MDCK-C11 cells; experiment: Quantitative PCR of pro-inflammatory mediators in MDCK-C11 cells; assay type: cell-based, Canine
# Description: Total RNA was isolated from cells using RNeasy micro kit (Qiagen, Valencia, Calif.) and from tissues using RNeasy Mini kit, as described previously (36). DNase I digestion was performed using RNase-Free DNase Set (Qiagen) according to the manufacturer's instructions. All reverse transcription (RT) and PCR reagents were from Applied Biosystems (Foster City, Calif.). Reverse-transcription was performed for 1 h at 42° C. in a final volume of 50 μl with 1× buffer II, 5 mM MgCl2, 1.0 mM each dNTP, 1 U/μl RNase inhibitor, 2.5 μM random hexamers, and 2.5 U/μl MuLV reverse transcriptase. PCR was performed on RT products. For end point PCRs, reaction mixtures consisted of a 20 μl final volume containing 2 μl template, 1.25 units AmpliTaq Gold DNA polymerase, lx buffer II, 1.5 mM MgCl2, 1.0 mM each dNTP, and 0.5 μM forward and reverse oligonucleotide primers. The following parameters were used for PCR: 8 min at 95° C. to activate the polymerase, 35 cycles of melting for 30 s at 95° C., annealing for 30 s at 60° C., extension for 30 s at 72° C., and a final extension for 10 min at 72° C. The amplification products were visualized by electrophoresis on a 1-2% agarose gel containing GelStar stain (Lonza, Rockland, Me.).
# Real Time PCR was performed with a 7300 Real Time PCR system (Applied Biosystems). Amplification products were detected using the Power SYBR Green PCR master mix (Applied Biosystems), according to the manufacturer's instructions. Standard-curve relative quantifications were performed and relative values of each sample were normalized to GAPDH values. Samples were analyzed in triplicates for each experiment.
# MDCK-C11 cells were cultured at 37° C. in a 5% CO2-95% O2 mix in DMEM (Invitrogen) supplemented with 2 mM glutamine, 10% fetal bovine serum (Invitrogen), penicillin (100 U/ml), and streptomycin (100 μg/ml) (Invitrogen). Prior to any treatment, cells were serum starved for 24 hours. For cell surface biotinylation assays, cells were either grown to confluence on plastic dishes or on filters. Biotinylation was performed as described previously (75). Briefly cells were incubated with 1 mg/ml of biotin (Thermo Scientific, Pittsburgh, Pa.) in PBS pH 8 on ice for 1 h. The excess biotin was quenched with 100 mM glycine and cells were either further processed for immunostaining or lysed in lysis buffer [150 mM NaCl, 5 mM EDTA, 50 mM Tris/HEPES, pH 7.5; 1% (vol/vol) Triton X-100] containing protease and phosphatase inhibitors (Complete Mini EDTA free, PhosSTOP, Roche Diagnostics, Laval, Canada), for 20 min at 4° C. Total protein expression was determined in 2-5 μg of proteins from the total cell extracts. 50-100 μg of cell lysate proteins were incubated with neutravidin beads (Thermo Scientific) overnight at 4° C. […]
# P2Y14 [4] = target: T1, P2Y14; conditions: MDCK-C11 cells, PPTN 10 μM pre-treatment 30 minutes, 100 μM UDP-glucose
# P2Y14 [5] = target: T2, P2Y14; experiment: ERK1/2 phosphorylation in FACS isolated EGFP(+) intercalated cells (immunoblot); assay type: cell-based; parameters: using total membranes separated from FACS isolated EGFP(+) cells and EGFP(−) cells; endogenous in cells; host or cells: EGFP(+) intercalated cells freshly isolated by FACS from kidneys of B1-EGFP transgenic mice; conditions: with PPTN
# Description: Mice were anesthetized using pentobarbital sodium (50 mg/kg body, ip, Nembutal, Abbott Laboratories, Abbott Park, Ill.). The blood was flushed out of the organs by perfusing the animals with a phosphate-buffered saline (PBS) through the cardiac left ventricle at a constant flow rate of 17 ml/min. Kidneys were excised and sliced, and some kidneys were microdissected to separate the cortex from the medulla. Tissues were then minced immediately with scissors in RPMI 1640 medium (Invitrogen, Grand Island, N.Y.) containing 1.0 mg/ml collagenase type I (Invitrogen), 1.0 mg/ml collagenase type II (Sigma Aldrich) and 2 mg/ml hyaluronidase (Sigma Aldrich), and digested for 45 min at 37° C. A 40-μm-nylon mesh was used to remove undigested material following tissue digestion. Cells were then washed once with RPMI 1640 medium and once with a calcium-free PBS. EGFP-positive (EGFP(+)) and negative (EGFP(−)) cells were isolated immediately by FACS, based on their green fluorescence intensity, as described previously (36). Cell isolation was performed at the MGH flow cytometry core facility using a modified FACS Vantage cell sorter (BD Biosciences, San Jose, Calif.). FACS isolated samples were collected in PBS and used without delay for subsequent treatment and/or cell fractionation, protein and RNA isolation, or imaging. […]
# [6] = PD98059 50 μM pretreatment 30 minutes
structure (smiles),measurement,setting,value
Nc1ncnc2c1ncn2[C@@H]1O[C@H](COP(=O)(O)OP(=O)(O)OP(=O)(O)O)[C@@H](O)[C@H]1O [ATP],inhibition of [3H]UDP-glucose binding by unlabeled ligand,P2Y14 [1],no significant inhibitory effect
same,displacement of [3H]UDP-glucose binding,P2Y14 [2],not with ATP
COc1cccc(-c2cc(=O)c3ccccc3o2)c1N [PD98059],UDP-glucose induced up regulation of CCL-2 mRNA,[3]; [6],abolished
same,UDP-glucose induced up regulation of IL-8 mRNA,[3]; [6],abolished
"O=C(O)c1cc(-c2ccc(C3CCNCC3)cc2)c2ccc(-c3ccc(C(F)(F)F)cc3)cc2c1 [PPTN, 4-[4-(piperidin-4-yl)phenyl]-7-[4-(trifluoromethyl)phenyl]-2-naphthoic acid]",UDP-glucose induced increase in ERK1/2 phosphorylation,P2Y14 [4],abolished
same,increase in CCl2 mRNA expression induced by UDP-glucose,[3]; PPTN pretreatment 30 minutes,abolished
same,increase in IL8 mRNA expression induced by UDP-glucose,[3]; PPTN pretreatment 30 minutes,abolished
same,UDP-glucose dependent ERK phosphorylation in ICs isolated by FACS (FIG. 14),P2Y14 [5],inhibits
